According to US20130245028A1, “TREATMENT OF CANCER WITH TOR KINASE INHIBITORS” (SIGNAL PHARMACEUTICALS, LLC, priority 2012, published 2013):

Assays:
[1] = test system: LNCaP-HR tumor; experiment: Castration-resistant LNCaP (LNCaP-HR) prostate cancer in vivo xenograft model; settings: castrated male SCID mice, oral QD up to 15 days, 1 to 5 mg/kg; FIG. 5
Description: Castration-Resistant LNCaP (LNCaP-HR) Prostate Cancer In Vivo Xenograft Model A xenograft study was conducted with castration resistant LNCaP-HR tumor-bearing mice. Castrated male SCID mice were inoculated subcutaneously with LNCaP-HR cells in the flank region above the right hind leg. Following inoculation of animals, the tumors were allowed to grow to about 325 mm^3 prior to randomization. On Day 26 following tumor cell inoculation, the mice bearing LNCaP-HR tumors ranging between 98 and 530 mm^3 were pooled together and randomized into various treatment groups. […] The positive control MDV-3100 (50 mg/kg, Q4D) was administered via oral route. MDV-3100 was formulated in 1% CMC, 0.1% Tween 80 and 5% dimethyl sulfoxide (DMSO) in water (as a suspension). Tumors were measured twice a week using calipers and tumor volumes were calculated using the formula of W2×L/2 (wherein “W” is tumor width and “L” is tumor length). Statistical analysis was performed using a one-way analysis of variance (ANOVA) followed by Dunnett's post-hoc comparison with the vehicle-treated control group.

[2] = test system: LNCaP, VCaP, DU145 or PC3 prostate cancer cell lines; experiment: Matrigel cell invasion assay for ETS positive and ETS negative lines; format: cell-based; settings: 10 μM, 48 hours treatment; FIG. 3
Description: Cell Invasion Assay for ETS Positive and ETS Negative Lines. […] Then cells were tripsinized and re-seeded onto BD biocoat matrigel invasion chamber insert with […] of a 24-well culture plate in serum free media. Cells were then attracted to the lower chamber by the addition of complete media as a chemoattractant. After 48 hours incubation at 37° C./5% CO2, the non-invading cells and EC matrix were gently removed with a cotton swab. Invasive cells, which were located on the lower side of the membrane, were stained with crystal violet, air dried and photographed (FIG. 3).

[3] = test system: ETS positive prostate cancer cells (VCAP and LNCAP); experiment: COMET DNA damage assay; format: cell-based; settings: FIG. 4
From the text: DNA Damage Assays: COMET Assay.

[4] = test system: PC3 and PC3-ERG prostate cancer cells; experiment: Clonogenic growth inhibition assay for ETS positive and ETS negative lines; format: cell-based; settings: PC3 vs PC3-ERG (ETS overexpression); FIG. 1A-C
From the text: Clonogenic Assay: Growth Inhibition Assay for ETS Positive and ETS Negative Lines. […] Then, cells were washed three times with PBS, trypsinized, and replated onto 6 well plates at desired cell densities. Every 3 days the media was replaced with fresh media containing compound. After typically 10-18 days, the cells were fixed and surviving colonies were stained with 0.1% crystal violet and counted by Image Quant (BD biosciences).

[5] = test system: ETS-positive (VCaP and LNCaP) and ETS-negative (PC3 and DU145) prostate cancer cell lines; experiment: Caspase 3/7-Glo apoptosis assay for ETS positive and ETS negative lines; format: cell-based; settings: single treatment, 48 hours; FIG. 2
Description: Caspase Analysis: Apoptosis Assay for ETS Positive and ETS Negative Lines. […] Cells were then directly seeded at desired densities to the Compound 1-spotted 384-well plates. Cells were cultured for 48 hours at 37° C./5% CO2 and were assessed via Caspase 3/7-Glo (Promega Corporation, Madison, Wis.) and read for luminescence.

1-ethyl-7-(2-methyl-6-(1H-1,2,4-triazol-3-yl)pyridin-3-yl)-3,4-dihydropyrazino[2,3-b]pyrazin-2(1H)-one [Compound 1]
LNCaP-HR prostate cancer tumor growth [1]: significantly inhibited
cell invasion [2]: reduced cell invasion
DNA damage (COMET tail moments) [3]: potentiates DNA damage in ETS positive cells
clonogenic growth inhibition (surviving colonies) [4]: ETS overexpression sensitizes PC3 cells to inhibition
Caspase activity (apoptosis) [5]: increased apoptosis in ETS positive cell lines
